Source: patent US4457932A, “Anti-ulcer agents” (Bristol-Myers Company, priority 1983, dated 1984)
Where two headings read alike, the source gives them in different places.

Assays:
[1] = tested on: ethanol-induced gastric ulcers (lesions); assay: Ethanol-induced ulcer model in the rat; assay type: in vivo, Adult male Long-Evans rats; details: for inhibition in vivo at 30 mg/kg: 30 mg/kg p.o.; for inhibition in vivo at 50 mg/kg: 50 mg/kg p.o.
Experimental: The effectiveness of the compounds of Formula I as cytoprotective agents was determined by an ethanol-induced ulcer model in the rat. This model is a modification of the procedure described by A. Robert in Scand. J. Gastroenterology 16: (Suppl. 67): 243 (1981). This model which screens for cytoprotective compounds is based on the ability of 100% ethanol to produce gastric ulcers (primarily in the fundic region of the stomach) in rats in a dose-related manner. Further details of the model are described below.
Adult male Long-Evans rats weighing 275-300 grams (Blue Spruce Farm, Alton, N.Y.) are used. Animals are housed individually in stainless steel cages with wire-mesh bottoms. The housing battery is arranged into six groups of five each, individually numbered from rat number 1, group 1 to rat number 5, group 6. Food and water are removed 24 and 18 hours, respectively, prior to testing. On the following day animals receive the test compound either p.o., s.c. or i.p. 30 minutes or more before administration of 100% ethanol (3.0 ml/kg) by gavage. Sixty minutes later the animals are sacrificed by administration of T-61 (Hoechst), 0.2 ml i.p.
An abdominal incision is made and, after clamping the esophagus just above the esophageal sphincter with tweezers, the stomach is carefully lifted from the abdominal cavity. Two cuts are made approximately 1/2" below the pyloric valve and 1/2" above the esophageal sphincter, and the stomach removed and set aside. This step is very rapid (2-3 seconds) and no loss of gastric contents is apparent. The size of the stomach including contents is noted as small, medium or large. Stomachs are cut open along the lesser curvature and the contents expressed into graduated centrifuge tubes.
Under these conditions, ethanol produces prominent macroscopic lesions in the corpus, but gross macroscopic changes are only very rarely observed in the forestomach. […] In addition, absence of the forestomach allows the remaining stomach to lie flat on a surface for photography and examination without undue stretching of the tissue. For these reasons, the forestomach (along with nongastric tissue) is removed.
The remaining corpus and antrum are rinsed in water and placed flat in a standard position. The tissue is photographed with a Polaroid close-up camera and scoring of lesions is done from this permanent record. Each photograph includes a reference scale in mm. Two scoring systems are used. For screening purposes each stomach is graded on a scale of 0 to 3 as described below:
Where more precise data are needed, e,g, in determining the ED50 for a compound, the total lesion area in mm is measured. Barely visible spots (petechiae) are scored as 1 mm each. For each treatment group, an average score is calculated. From this, the percent inhibition of lesion formation, I, is calculated as:
I=Lesion Score (controls)-Lesion Score(treated)X 100 Lesion Score(controls)
In dose-response studies, the ED50 (dose at which 50% inhibition of lesion formation occurs) is determined by probit analysis according to Finney.

[2] = tested on: aspirin-stress gastric ulcer; assay: Aspirin-stress gastric ulcer model in rats; assay type: in vivo; details: 100 mg/kg p.o.
Experimental: (§1) The compound of Formula I wherein R^4 is methyl and R^1, R^2 and R^3 are each hydrogen was also tested in several other ulcer models. […] The results in the above models are probably indicative of the lack of significant anti-secretory activity in the compound of the present invention.

[3] = tested on: cysteamine-induced duodenal ulcer; assay: Cysteamine-induced duodenal ulcer model in rats; assay type: in vivo; details: dosed seven times over 30 hours (40 mg/kg, p.o.)
Experimental: as §1

[4] = tested on: gastric secretion; assay: Gastric secretion in the conscious gastric fistula rat; assay type: in vivo; details: oral, read-out: oral ED50, block of gastric secretion
Experimental: as §1

[5] = tested on: HCl-induced gastric lesions; assay: HCl-induced gastric lesions in the rat; assay type: in vivo; details: po, read-out: ED50 against HCl-induced gastric lesions
[6] = po, rat, read-out: Antiulcer Activity, % Inhibition (of lesion formation)

O=c1c(-c2nnn[nH]2)cnc2ccc(Cl)cn12 was tested, and the inhibition in vivo at 12.6 mg/kg ([1]; po, 12.6 mg/kg p.o., rat, read-out: Antiulcer Activity, % Inhibition (of lesion formation)) was 93%.

Molecule O=c1c(-c2nnn[nH]2)cnc2c3c(ccn12)CCCC3 has an inhibition in vivo at 30 mg/kg [1, 6] of 68%.

Molecule Cc1cccc2ncc(-c3nnn[nH]3)c(=O)n12 has an inhibition in vivo at 30 mg/kg [1, 6] of 75%.

Molecule Cc1ccc2ncc(-c3nnn[nH]3)c(=O)n2c1 has an inhibition in vivo at 30 mg/kg [1, 6] of 79%.

In the case of CCCCc1ccc2ncc(-c3nnn[nH]3)c(=O)n2c1, the inhibition in vivo at 30 mg/kg [1, 6] is reported as 54%.

For Cc1cc(C)c2ncc(-c3nnn[nH]3)c(=O)n2c1, the inhibition in vivo at 30 mg/kg [1, 6] was 92%.

Work on Cc1ccn2c(=O)c(-c3nnn[nH]3)cnc2c1 yielded an inhibition in vivo at 30 mg/kg [1, 6] of 70%.

For CCc1cccn2c(=O)c(-c3nnn[nH]3)cnc12, the inhibition in vivo at 50 mg/kg [1, 6] was 96%.

Molecule CCCc1cccn2c(=O)c(-c3nnn[nH]3)cnc12 has an inhibition in vivo at 30 mg/kg [1, 6] of 77%.

With CCCCc1cccn2c(=O)c(-c3nnn[nH]3)cnc12 the inhibition in vivo at 50 mg/kg [1, 6] was 41%.

Cc1cccn2c(=O)c(-c3nnn[nH]3)cnc12 was tested, and the “activity in aspirin-stress gastric ulcer model” value [2] was “inactive”, the “activity in cysteamine-induced duodenal ulcer model” value [3] was “inactive” and the ED50 [4] was 27 mg/kg. The ED50 [5] was 20.8 mg/kg.

For CN/C(=N/CCSCc1nc[nH]c1C)NC#N [Cimetidine, reference compound], the ED50 ([1]; Rattus norvegicus) was 235 mg/kg.

With CCCCC[C@H](O)/C=C/[C@H]1[C@H](O)CC(=O)[C@@H]1C/C=C\CCCC(=O)O [PGE2, reference compound] the ED50 ([1]; oral, rat, read-out: oral ED50) was 0.024 mg/kg.

Cc1cccn2c(=O)c(-c3nnn[nH]3)cnc12 [drawing 30] was tested, and the inhibition in vivo at 30 mg/kg [1, 6] was 88% and the ED50 ([1]; po, rat, table footnote, read-out: ED50 (dose at which 50% inhibition of lesion formation occurs)) was 0.3 mg/kg.

For sucralfate [reference compound], the “oral ED50” value ([1]; oral, rat) was 21 mg/kg.
